Measurements taken from article PMC11124822, “Discovery and Anticancer Screening of Novel Oxindole-Based Derivative Bearing Pyridyl Group as Potent and Selective Dual FLT3/CDK2 Kinase Inhibitor” (Pharmaceuticals, 2024).

What was measured:
SNB-75 = assay: NCI-60 antiproliferative screen (SRB); settings: Homo sapiens, SNB-75, 48 h, read-out: Growth inhibition (%)
Experimental: Anticancer activity was tested against 60 cancer cell lines (NCI-60) after 48h treatments with a single dosage of 10 μM of compounds by using sulforhodamine B assay [39] on the traditional 96-well platform. […] The human cancer cell lines of the NCI-60 panel are grown in RPMI 1640 medium supplemented with 5% FBS (fetal bovine serum) and 2 mM L-glutamine. […] For further analysis of promising compounds, five dose screens were performed against the NCI-60 panel. Drug treatments are performed in 5 doses using 10-fold or ½ log dose dilutions.

NCI-H23 = assay: NCI-60 antiproliferative screen (SRB); assay type: cell-based, human; settings: Homo sapiens; 10 µM single dose, 48 h; NCI-H23 (NSCLC); read-out: Growth inhibition (%)
SK-MEL-2 = assay: NCI-60 antiproliferative screen (SRB); assay type: cell-based, human; settings: Homo sapiens; 10 µM single dose, 48 h; SK-MEL-2 (Melanoma); read-out: Growth inhibition (%)
HOP-62 = assay: NCI-60 antiproliferative screen (SRB); assay type: cell-based, human; settings: Homo sapiens; 10 µM single dose, 48 h; HOP-62 (NSCLC); read-out: Growth inhibition (%)
SK-OV-3 = assay: NCI-60 antiproliferative screen (SRB); assay type: cell-based, human; settings: Homo sapiens; 10 µM single dose, 48 h; SK-OV-3 (Ovarian); read-out: Growth inhibition (%)
SF-539 = assay: NCI-60 antiproliferative screen (SRB); assay type: cell-based, human; settings: Homo sapiens; 10 µM single dose, 48 h; SF-539 (CNS); read-out: Growth inhibition (%)
MCF7 = assay: NCI-60 antiproliferative screen (SRB); assay type: cell-based, human; settings: Homo sapiens; 10 µM single dose, 48 h; MCF7 (Breast); read-out: Growth inhibition (%)
A498 = assay: NCI-60 antiproliferative screen (SRB); assay type: cell-based, human; settings: Homo sapiens; 10 µM single dose, 48 h; A498 (Renal); read-out: Growth inhibition (%)
CCRF-CEM = assay: NCI-60 antiproliferative screen (SRB); assay type: cell-based, human; settings: Homo sapiens; 10 µM single dose, 48 h; CCRF-CEM (Leukemia); read-out: Growth inhibition (%)
TK-10 = assay: NCI-60 antiproliferative screen (SRB); assay type: cell-based, human; settings: Homo sapiens; 10 µM single dose, 48 h; TK-10 (Renal); read-out: Growth inhibition (%)
MOLT-4 = assay: NCI-60 antiproliferative screen (SRB); assay type: cell-based; settings: Homo sapiens; 10 µM single dose, 48 h; MOLT-4 (Leukemia); read-out: Growth inhibition (%)
SN12C = assay: NCI-60 antiproliferative screen (SRB); assay type: cell-based, human; settings: Homo sapiens; 10 µM single dose, 48 h; SN12C (Renal); read-out: Growth inhibition (%)
HCT-15 = assay: NCI-60 antiproliferative screen (SRB); assay type: cell-based, human; settings: Homo sapiens; 10 µM single dose, 48 h; HCT-15 (Colon); read-out: Growth inhibition (%)
T-47D = assay: NCI-60 antiproliferative screen (SRB); assay type: cell-based, human; settings: Homo sapiens, T47D; 10 µM single dose, 48 h; T-47D (Breast); read-out: Growth inhibition (%)
SK-MEL-28 = assay: NCI-60 antiproliferative screen (SRB); assay type: cell-based, human; settings: Homo sapiens; 10 µM single dose, 48 h; SK-MEL-28 (Melanoma); read-out: Growth inhibition (%)
SF-268 = assay: NCI-60 antiproliferative screen (SRB); assay type: cell-based, human; settings: Homo sapiens; 10 µM single dose, 48 h; SF-268 (CNS); read-out: Growth inhibition (%)
HCC-2998 = assay: NCI-60 antiproliferative screen (SRB); assay type: cell-based, human; settings: Homo sapiens; 10 µM single dose, 48 h; HCC-2998 (Colon); read-out: Growth inhibition (%)
RPMI-8226 = assay: NCI-60 antiproliferative screen (SRB); assay type: cell-based, human; settings: Homo sapiens; 10 µM single dose, 48 h; RPMI-8226 (Leukemia); read-out: Growth inhibition (%)
CAKI-1 = assay: NCI-60 antiproliferative screen (SRB); assay type: cell-based, human; settings: Homo sapiens; 10 µM single dose, 48 h; CAKI-1 (Renal); read-out: Growth inhibition (%)
COLO 205 = assay: NCI-60 antiproliferative screen (SRB); assay type: cell-based, human; settings: Homo sapiens; 10 µM single dose, 48 h; COLO 205 (Colon); read-out: Growth inhibition (%)
A549/ATCC = assay: NCI-60 antiproliferative screen (SRB); assay type: cell-based, human; settings: Homo sapiens; 10 µM single dose, 48 h; A549/ATCC (NSCLC); read-out: Growth inhibition (%)
OVCAR-5 = assay: NCI-60 antiproliferative screen (SRB); assay type: cell-based, human; settings: Homo sapiens; 10 µM single dose, 48 h; OVCAR-5 (Ovarian); read-out: Growth inhibition (%)
ACHN = assay: NCI-60 antiproliferative screen (SRB); assay type: cell-based, human; settings: Homo sapiens; 10 µM single dose, 48 h; ACHN (Renal); read-out: Growth inhibition (%)
MDA-MB-231 = assay: NCI-60 antiproliferative screen (SRB); assay type: cell-based, human; settings: Homo sapiens; 10 µM single dose, 48 h; MDA-MB-231 (Breast); read-out: Growth inhibition (%)
SW-620 = assay: NCI-60 antiproliferative screen (SRB); assay type: cell-based, human; settings: Homo sapiens; 10 µM single dose, 48 h; SW-620 (Colon); read-out: Growth inhibition (%)
OVCAR-8 = assay: NCI-60 antiproliferative screen (SRB); assay type: cell-based, human; settings: Homo sapiens; 10 µM single dose, 48 h; OVCAR-8 (Ovarian); read-out: Growth inhibition (%)
SK-MEL-5 = assay: NCI-60 antiproliferative screen (SRB); assay type: cell-based, human; settings: Homo sapiens; 10 µM single dose, 48 h; SK-MEL-5 (Melanoma); read-out: Growth inhibition (%)
HOP-92 = assay: NCI-60 antiproliferative screen (SRB); assay type: cell-based, human; settings: Homo sapiens; 10 µM single dose, 48 h; HOP-92 (NSCLC); read-out: Growth inhibition (%)
KM12 = assay: NCI-60 antiproliferative screen (SRB); assay type: cell-based, human; settings: Homo sapiens; 10 µM single dose, 48 h; KM12 (Colon); read-out: Growth inhibition (%)

SMILES	inhibition at 10 µM (SNB-75) [%]	inhibition at 10 µM (NCI-H23) [%]	inhibition at 10 µM (SK-MEL-2) [%]	inhibition at 10 µM (HOP-62) [%]	inhibition at 10 µM (SK-OV-3) [%]	inhibition at 10 µM (SF-539) [%]	inhibition at 10 µM (MCF7) [%]	inhibition at 10 µM (A498) [%]	melting point [°C]	inhibition at 10 µM (CCRF-CEM) [%]	inhibition at 10 µM (TK-10) [%]	inhibition at 10 µM (MOLT-4) [%]	inhibition at 10 µM (SN12C) [%]	inhibition at 10 µM (HCT-15) [%]	inhibition at 10 µM (T-47D) [%]	inhibition at 10 µM (SK-MEL-28) [%]	inhibition at 10 µM (SF-268) [%]	inhibition at 10 µM (HCC-2998) [%]	inhibition at 10 µM (RPMI-8226) [%]	inhibition at 10 µM (CAKI-1) [%]	further results
O=C1Nc2ccc(F)cc2C1=Cc1ccc(OCc2cccnc2)cc1 (mixture of isomers) [Compound 5j, (E/Z)-5-Fluoro-3-[4-(pyridin-3-ylmethoxy)benzylidene]indolin-2-one]	-5.67	58.2	50.4	45.4	13.2	63.3	91	-29.1	187 to 189	75	-1.92	88.5	46.1	84.8	66.7	28.2	11.1	23.4	61.2	67.6	inhibition at 10 µM (COLO 205): 46.1%; inhibition at 10 µM (A549/ATCC): 39.4%; inhibition at 10 µM (OVCAR-5): -11.2%; inhibition at 10 µM (ACHN): 51.8%; inhibition at 10 µM (MDA-MB-231): 42%; inhibition at 10 µM (SW-620): 70.1%; inhibition at 10 µM (OVCAR-8): 65.1%; inhibition at 10 µM (SK-MEL-5): 113%; inhibition at 10 µM (HOP-92): 25.8%; inhibition at 10 µM (KM12): 97.3%
O=C1Nc2ccc(Cl)cc2C1=Cc1ccc(OCc2cccnc2)cc1 (mixture of isomers) [Compound 5k, (E/Z)-5-Chloro-3-[4-(pyridin-3-ylmethoxy)benzylidene] indolin-2-one]	-10.2	16.7	0.36	0.56	5.36	20.2	55.5	-31.6	199 to 201	36.4	-37.8	52.6	9.17	46.5	23.2	-20.5	5.1	-9.21	29.7	51	inhibition at 10 µM (COLO 205): 5.66%; inhibition at 10 µM (A549/ATCC): 16.1%; inhibition at 10 µM (OVCAR-5): -34.5%; inhibition at 10 µM (ACHN): 16.4%; inhibition at 10 µM (MDA-MB-231): 9.08%; inhibition at 10 µM (SW-620): 2.62%; inhibition at 10 µM (OVCAR-8): 23.4%; inhibition at 10 µM (SK-MEL-5): 11.4%; inhibition at 10 µM (HOP-92): -1.4%; inhibition at 10 µM (KM12): 52.8%
O=C1Nc2ccccc2C1=Cc1ccc(OCc2ccncc2)cc1 (mixture of isomers) [Compound 5m, (E/Z)-3-[4-(Pyridin-4-ylmethoxy)benzylidene] indolin-2-one]	35.2	49.8	27.2	23	9.38	24.9	71.6	2.17	238 to 240	40.5	17.9	78.5	21.4	62.3	65.1	-4.73	22.7	20.6	71.5	45.6	inhibition at 10 µM (COLO 205): 38.3%; inhibition at 10 µM (A549/ATCC): 34.5%; inhibition at 10 µM (OVCAR-5): -33.2%; inhibition at 10 µM (ACHN): 24.1%; inhibition at 10 µM (MDA-MB-231): 16.6%; inhibition at 10 µM (SW-620): 22%; inhibition at 10 µM (OVCAR-8): 35%; inhibition at 10 µM (SK-MEL-5): 90%; inhibition at 10 µM (HOP-92): 40.2%; inhibition at 10 µM (KM12): 66.3%
O=C1Nc2ccc(F)cc2C1=Cc1ccc(OCc2ccncc2)cc1 (mixture of isomers) [Compound 5n, (E/Z)-5-Fluoro-3-[4-(pyridin-4-ylmethoxy)benzylidene] indolin-2-one]	26.6	58.6	28.1	17	13.7	41.7	91.8	12.9	233 to 235	40.6	29.9	76.7	41.3	78.8	64.3	-9.39	38.8	25.7	64.5	62.3	inhibition at 10 µM (COLO 205): 22.1%; inhibition at 10 µM (A549/ATCC): 29.8%; inhibition at 10 µM (OVCAR-5): -27.6%; inhibition at 10 µM (ACHN): 70.3%; inhibition at 10 µM (MDA-MB-231): 20.7%; inhibition at 10 µM (SW-620): 41.1%; inhibition at 10 µM (OVCAR-8): 56.2%; inhibition at 10 µM (SK-MEL-5): 93.1%; inhibition at 10 µM (HOP-92): 36.9%; inhibition at 10 µM (KM12): 69.8%
O=C1Nc2ccc(Cl)cc2C1=Cc1ccc(OCc2ccncc2)cc1 (mixture of isomers) [Compound 5o, (E/Z)-5-Chloro-3-[4-(pyridin-4-ylmethoxy)benzylidene] indolin-2-one]	21.2	55.3	4.23	19.7	11.4	44	92.8	1.01	238 to 240	53.9	17.7	81.2	34.4	79.1	61	14.5	55.7	12.4	70.5	38.7	inhibition at 10 µM (COLO 205): 19.2%; inhibition at 10 µM (A549/ATCC): 39.9%; inhibition at 10 µM (OVCAR-5): -14.4%; inhibition at 10 µM (ACHN): 70.2%; inhibition at 10 µM (MDA-MB-231): 24.9%; inhibition at 10 µM (SW-620): 48.3%; inhibition at 10 µM (OVCAR-8): 61.5%; inhibition at 10 µM (SK-MEL-5): 62.6%; inhibition at 10 µM (HOP-92): 16.3%; inhibition at 10 µM (KM12): 60.6%
